Data reported in patent publication US20140099354A1, “BIOPASSIVATING MEMBRANE STABILIZATION BY MEANS OF NITROCARBOXYLIC ACID-CONTAINING PHOSPHOLIPIDS IN PREPARATIONS AND COATINGS” (priority 2011, published 2014).
Read-outs that look alike come from different tables or passages of the source.

Columns and labels:
TRPV1, 2 and 4, TRPA1 = assay: Inducible ion current of TRP receptors in Xenopus oocytes (voltage clamp); type: cell-based, rat; conditions: 50 mmol/l, 10 and 60 minutes
Method: An established in-vitro model of Xenopus oocytes (Dascal N, 1987 The use of Xenopus oocytes. CRC critical reviews in biochemistry 22, 317-387) was used to study the influence of incubation with PL on ion channels regulated by membrane receptors. Defolliculized oocytes were transfected with cRNA (rat) of TRPV1, 2 and 4, as well as of TRPA1, stored in tissue culture plates and incubated in culture medium (ND 96) at 15° C. under constant motion in the incubator for 7 to 10 days.
Induced leakage currents through activation of the TRP receptors was determined by means of double electrode voltage-clamp technique (Ahern G P, Brooks I M, Miyares R L &Wang X B, 2005, Extracellular cations sensitize and gate capsaicin receptor TRPV1 modulating pain signalling. J Neurosci 25, 5109-5116). Ooocytes were probed with borosilicate glass capillaries (Clark) and connected to a feedback amplifier (Gene clamp Amplifier, Axon instruments). The membrane potential of oocytes was clamped to −60 or −90 mV. The presence of a directive […] current was compared to non-transfected controls. The investigations were performed in a miniature organ bath in calcium-free buffered (Hepes, pH 7.3) NaCl solution. The TRPV1 receptor excitation was initiated by rapidly changing of the bath solution against a capsaicin solution (10 μmol). Results of non-pretreated oocytes were used for normative comparison of subsequent measurements of incubatesd cells. Investigations with incubated cells were carried out in the same way for oocytes transfected with the TRPV2, and TRPV4 and TRPA1 receptors, wherein the receptor agonists cannabidiol (10 μmol) and 4α-PDD (4α-phorbol 12,13-didecanoate, 50 μmol) and innamaldehyde (50 μmol) were used instead of capsaicin.

ovarian tissue strips [1] = assay: Cryopreservation of ovarian tissue strips: intact follicles; conditions: liquid nitrogen 14 days, cultured 14 days
[2] = tested on: Cardiac muscle cells derived from neonatal rat heart; assay: Hypoxia of cardiac muscle cells (viability, mitochondrial NAD+); type: cell-based; design: loss of viability of heart muscle cells after hypoxia: concentration or dose not given beside the values; conditions: for mitochondrial NAD+ content: hypoxia, baseline 5
Method: Cardiac muscle cells derived from neonatal rat heart (Nitobe J, et al, Reactive oxygene species regulate FLICE inhibitory protein and susceptibility to FAS-mediated apoptosis in cardiac myocytes. Cardiovasc RES 2003, 119-28). The heart muscle cells were cultured in Dulbecco/Eagle medium (DMEM) with 10% FCS added under standard conditions for two days. Incubation with the natural and nitrated phospholipids, as well as the hypoxia experiments were carried out as described above. Incubated cells were grown in culture medium under standard conditions for 24 hours. This is followed by a vitality staining as described above. […] The frozen cells were thawed up to -4° C. and homogenized for subsequent NAD^+ analyses. By means of differential centrifuge, pellets containing mitochondria were separated (Di Lisa, et al, 1993; Am. J. Physiol. 264, […]-[…]). The NAD^+ content was determined by fluoroscopy, and normalized to the protein content (Veloso, D., and […]., 1974;) Anal. Biochem., 449-450).

[3] = tested on: HeLa, HUVEC and L929 fibroblast; assay: cells; type: cell-based; conditions: for EC50: after 48 hours; for viability as quantified by the MTT assay: tested concentrations 10 μmol to 1 mmol, EC50 could not be calculated
Method: (§1) Physiologically occurring phospholipids can be taken up by virtually all cell lines in large quantities. It is known that phospholipids that contain non-physiologically occurring fatty acid residues can cause cell lyses or death. Three cell lines (HeLa, HUVEC and L929 fibroblast) were cultured in a suitable culture medium of 5% FCS at 37° C. and 5% CO2 concentrations to a subconfluent concentration of 1.5×10^5 cells.
SOPC, DOPC, POPC, ONOPC, PNLPC, and the free fatty acids of OA, LA, NOOA, and NOLA were dissolved in 0.5% DMSO. […] Cell cultures were incubated for 24 h and 48 h. Thereafter, the culture medium was removed and the cells washed twice. Following this, cells suspensions were given in four vials to perform the following analysis:
For the determination of viability, phenol red was added to the suspended cells. After 4 h, the medium was renewed and 10 μl of the MTT solution was added. The cells were cultured for 4 hours, and then a 10% SDS solution was pipetted. After 24 h, absorption of formazan crystals was measured at 500 nm using a power wave X (bio-tek instruments, Inc., USA). For the quantitative comparison of toxicity, the EC50 was determined.

[4] = tested on: Heart muscle cells from rabbit hearts; assay: Cytosolic Ca2+ concentration in heart muscle cells (fluo-4 fluorescence); type: cell-based
Method: Heart muscle cells were taken from rabbit hearts according to a method described elsewhere (Shannon T R, Ginsburg K S, Bers D M. Quantitative assessment of the SRCa^2+ leak-load relationship. Circ Res. 2002; 91:594-600). The prepared cells were cultured for 72 hours.
The cytosolic Ca^2+ concentrations were determined with fluo-4 fluorescence. Therefore the cells were incubated with 10 μmol fluo-4 AM (1%) for 30 minutes and washed thereafter three times with PBS. The cells were stimulated in a Tryode solution on a platinum electrode with a frequency of 0.5 Hz over 20 cycles. Then the ambient medium was changed and an electrolyte-free colloidal solution was added. Determination of the Ca concentration was performed after each series of stimulation over 20 cycles. Calcium content was estimated by the use of confocal laser scanning microscopy (Olympus). At least 10 cells per experiment were evaluated in a post-systolic interval of 1000 ms. The measurements were repeated at least three times. β-adrenergic stimulation was performed with 250 nmol/L isoproterenol, which was given to the medium.

cortical neurons = assay: Hypoxia and reperfusion of cortical neurons (viability, LDH)
Method: To determine whether the membrane-stabilizing properties of nitrated phospholipids can lead to attenuation of effects due to an ischemic event or the re-perfusion damage, cortical neurons and cardiac myocytes were investigated.
Freshly prepared cortex tissue was separated with Papain and tissue suspensions were cultured in culture vessels (Prim ARA; BD Biosciences, USA) with Neurobasal A/B27 medium (Invitrogen) for 10-12 days. Cell suspensions were divided, and replenished with suspensions of the natural phospholipids SOPC and PLPC, as well as the analogue phospholipids with nitration of unsaturated fatty acids (1-stearoyl-2-(9-nitrooleoyl)-sn-PC and 1-palmitoyl-2-(9-nitrolinoleoyl)-sn-PC) at concentrations of 10 to 50 μmol/l in NaCl (0.9%) were added. […] After 4 hours, the cells were washed three times with buffered saline and buffered NaCl solution with the addition of MgCl2 and CaCl2 in an anaerobic atmosphere (85% N2, 5% O2, 10% CO2; at 35° C.) for 10 and 30 minutes. Then, the cells were washed once and grown in culture medium under aerobic conditions for 24 hours. […] Cells were stained with annexin V-FITC and propidium iodide (Molecular probes, USA). The vital and necrotic cells were measured by flow cytometry (FACSCalibur, Becton & Dickinson). The volume of culture medium was determined and an aliquot was taken for determination of the LDH (lactate dehydrogenase) concentration.

ovarian tissue strips [5] = assay: Cryopreservation of ovarian tissue strips: 17 β-estradiol and progesterone (radio-immuno assay); type: cell-based, sheep; conditions: after cryopreservation and culture
Method: Ovar ectomy was performed in female sheep; resected tissues were cut into 60 ovarian tissue strips. The ovarian strips were either cultured directly (n=4) or prepared with a usual solution for vitrification (VS group; Vitrification Kit, Sage, USA) or incubated with nitrated PLs (NPL group). For this purpose, the tissue strips were bathed in an equibrilation solution (ART-8025-A) which consisted of MOPS-buffered amino acids and gentamicin sulfate (10 mg/l), and 7.5% (v/v) of each DMSO and ethylene glycol and 12 mg/ml human serum albumin for 30 minutes. Thereafter the strips of the VS group were placed in the vitrification solution (ART-8025-B), which is a MOPS-buffered solution containing amino acids and gentamicin sulfate, that contain 15% (v/v) each DMSO and ethylenglycol, 12 mg/ml human albumin and 0.6 M sucrose. The strips of the NPL group were placed in a solution containing 25% (v/v) nitrated PL SNOPC or PNLPC in a PBS-buffered 1% DMSO solution containing 5% human albumin for 60 minutes. The treated tissue strips were then immersed into liquid nitrogen and kept here for 14 days. Then removal and warming of the tissue pieces was performed in AIM-V medium (Gibco, Invitrogen) in a sterile culture dish, first up to 5° C. within 20 minutes, then heated further in a water bath up to 37° C., within the following 60 minutes. The culture medium was replaced and specimens cultured for 14 days. After this, the tissue pieces were fixed, embedded in paraffin and cut, followed by histological examination. […] The total number of intact follicles in the control group was taken as a reference to the number of follicles in the cryopreserved groups.
The culture medium has been exchanged by every 2nd day; samples for hormone analysis were taken and frozen at that time. Determination of 17 β-estradiol and progesterone were performed with a radio-immuno assay (diagnostic systems laboratories, USA).

[6] = Tissue response to coated silicone implants in vivo after bleomycin; design: species or system Wistar rats; conditions: silicone cushions, subcutaneous, 7 to 90 days
Method: Induction of fibrotic tissue production by connective tissue activation as a consequence of implantation of foreign material was examined in an in-vivo animal model. As implant materials, sterile silicone cushions having a diameter of 1 cm were used.
In male Wistar rats (190-240 g) that were fed and housed under identical conditions for one week, general anaesthesia was performed by intramuscular injection of 0.008 mL/100 g ketamine and 0.004 mL/100 g xylocaln chloride 2%. Then the back of the animals was shaved, sterilized and infiltrated with xylocalne chloride. A paravertebral incision was made on both sides with a length of 1.5 cm followed by preparation of the subcutaneous tissue, so that on both sides approx. 2×2 cm cavities were preformed. Hemostasis was achieved by cauterization, if necessary. Then balls of cotton saturated with Bleomycin (cell-pharm GmbH, Hannover, Germany: 1% in 0.9% NaCl solution) were inserted into the cavities for 3 minutes and then removed. Without rinsing the cavities, the implants coated with a nitrated phospholipid were inserted into the cavity on the left side and the implants coated with natural phospholipid into the cavity on the right side. Thereafter, a layer by layer wound closure was performed and a sterile adhesive bandage was applied.
The animals were kept according to standard conditions for 7, 14, 30, 60 and 90 days. At any study time endpoint, two animals were euthanized. After death the well visible and palpable implants were removed using en-block resection technique. The resected specimens were fixed and embedded in paraffin. Then they were cut in half and the liquid silicone was removed. The specimens were embedded again and cut into thin slices which were stained with H & E and Sirius red, and evaluated by light microscopy. Evaluation was done according to the following criteria:
A1: none; A2: occasional monocytic cells or lymphocytes; A3: moderate numbers or groups of monocytic cells or lymphocytes; A4: dense infiltration of monocytes, eosinophils, or giant cells.
B1: none; B2: collagen-rich layer around the implant; B3: thick (>1 mm) and dense collagen-rich tissue formation around the implant.
In every 10th serial section 10 fields of view uniformly distributed over the circumference of the implant were evaluated and the herein predominant expression was assigned to an event table. In total, 200 fields of view were analyzed per implant

[7] = tested on: HeLa, HUVEC and L929 fibroblast; assay: Volumetric measurement of cells (Coulter counter); type: cell-based; conditions: time-dependent increase after incubation
Method: as §1
(§2) SOPC, DOPC, POPC, ONOPC, PNLPC, and the free fatty acids of OA, LA, NOOA, and NOLA were dissolved in 0.5% DMSO. Experiments were performed also with nitro-carboxylic acid-containing phospholipids according to examples N15-N20, G, O3, O5, P2, P5, P8, P9, P11 and Q. PL prepared as aqueous suspensions were added the culture flasks in order to achieve PL concentrations in the culture medium from 10 μmol to 1 mmol. Cell cultures were incubated for 24 h and 48 h. Thereafter, the culture medium was removed and the cells washed twice. Following this, cells suspensions were given in four vials to perform the following analysis:
Volumetric measurement of cells was done in a Histopenz (Sigma) solution with an effective NaCl concentration of 0.9% (approximately 290 mOsm) heated to 37° C. in which the cells were suspended; thereafter the solution was sonified for 2 minutes. Measurements were done using a Coulter counter Z2.

sciatic nerve = assay: Viability of cryopreserved nerve grafts (Annexin-V staining, FACS); type: cell-based, rats; conditions: 100 mmolar solution 1 hour; −30° C. 72 hours
Method: The sciatic nerve was prepared and sectured in anesthetized rats. The nerve pieces were freed from connective tissue and divided into 3 parts. Specimens were placed in culture DMEM medium containing low a concentration of glucose (1 g/L) with L-glutamine (PAA, Pasching Austria) for 24 hours. […] Nerve specimens from the same animals that received no pretreatment served as controls. After incubation, the specimens were cultured for 24 hours. In a further control group, specimens were cryopreserved without any pretreatment. The specimens were covered with a sterile gauze pad moistened with culture medium. Thereafter the temperature was gradually cooled to −30° C. After 72 hours, the nerve pieces were gradually rewarmed to 37° C. After this, renewed culturing was done for 48 hours. The nerve pieces were dissected enzymatically then (collagenase A and D, Roche, Mannheim, Germany) followed by a mechanical separation through multiple uptake and release in a glass pipette. The isolated cells were washed and marked with a living/death staining (Annexin-V-Fluos staining Kit, Roche Diagnostics, Mannheim, Germany) and quantified using FACS analysis. The number of living cells identified was set in relation to the total cells count.

[8] = Abrasion stability and traction work load of coated balloon catheters; type: physicochemical
Method: Balloon catheters were coated by means of the Langmuir-Schaefer procedure where the balloon segment was aligned longitudinally and coaxial to the solution surface, dipping into the liquid for approx. 1 mm over the entire length. Then the catheter was slowly rotated around its axis 5 times. Phospholipids were dissolved at a concentration of 3 mmol in an ion-free aqueous solution at 50° C. The solution was cooled and given to the coating solution then. In case of incomplete dissolution of the phospholipids or if they separated when cooled, DMSO was added at a concentration of up to 20 vol.-%, preferably up to 10 vol.-%. After coating, the catheters were vacuum dried for 8 hours in order to remove residual solvent.
The tubing was filled with a 10% human albumin solution at a temperature of 35° C. The cable system, which had previously been brought through the tubing was connected to the catheter tip and tracked outside the tubing by reversing pulleys, which allowed exactly vertically traction of the cable that was connected to a motorized winch. The winch was mounted on a digital precision balance. The catheters mounted in this manner were pulled through the tubing system and the weight changes measured by the balance, which represented the traction work load achieved for the passage of the catheter, was recorded continuously. These readings were integrated over time. The resultant values allow estimation of the total shear force that occurred during the passage of the catheter through the tubing system.
The abrasion or loss of coating layers was determined by weighing the catheter before and after coating as well as after the mechanical stability test in the tubing system as described above using a high precision balance.

[9] = tested on: HeLa, HUVEC and L929 fibroblast; assay: Cell viability with the live/dead assay; type: cell-based
Method: as §1, §2
Studies of cell viability were carried out with the live/dead assay (Molecular Probes). For this purpose, the cells were washed twice with PBS solution and then seeded into a culture medium. Incubation with the staining solution (in 0.1% DMSO) was carried out over 30 minutes in the dark. The viability analyses were performed using fluorescence microscopy.

[10] = for the different cell lines, read-out: EC50 concentration (MTT assay)

CCCCC/C=C\CC=C(CCCCCCCC(=O)O[C@H](COC(=O)CCCCCCCCCCCCCCC)COP(=O)([O-])OCC[N+](C)(C)C)[N+](=O)[O-] [Example P7, 1-palmitoyl-2-(9-nitrolinoleoyl)-sn-3-glycerophosphocholine]
inducible membrane channel activity of TRP channels (TRPV1, 2 and 4, TRPA1): significant decrease of inducible membrane channel activity
rate of intact follicles relative to the control group (ovarian tissue strips [1]): 98%
loss of viability of heart muscle cells after hypoxia ([2]; (10 minutes)): 5%
loss of viability of heart muscle cells after hypoxia ([2]; (30 minutes)): 18%
mitochondrial NAD+ content ([2]; first printed value): 3.6 nmol/mg protein
mitochondrial NAD+ content ([2]; second printed value): 3.1 nmol/mg protein
total viability (MTT assay) [3]: 75%
EC50 ([3]; range over cell lines, read-out: EC50 (MTT assay)): 400 to 3900 µM
end of diastole (ED) cytosolic calcium ([4]; after hypoxia): 70 nmol/L
post systolic (PS) cytosolic calcium ([4]; after hypoxia): 30 nmol
end of diastole (ED) cytosolic calcium ([4]; after hypoxia and stimulation with isoproterenol): 100 nmol/L
end of diastole (ED) cytosolic calcium ([4]; normoxic conditions): 30 nmol/L
post systolic (PS) cytosolic calcium ([4]; normoxic conditions): 10 nmol
increase in LDH versus normoxemia culture (cortical neurons; 10-minutes ischemia): 130 fold
viability of cortical cells measured after 24 hours (cortical neurons; 10-minutes ischemia): 70%
increase in LDH versus normoxemia culture (cortical neurons; 30-minutes ischemia): 290 fold
viability of cortical cells measured after 24 hours (cortical neurons; 30-minutes ischemia): 52%
estradiol (ovarian tissue strips [5]): 8.3 ng/mL
progesterone (ovarian tissue strips [5]): 0.4 ng/mL
biocompatibility of coated implants compared to natural PLs [6]: improved biocompatibility of implants several-fold

CCCCCCCC/C=C(\CCCCCCCC(=O)O)[N+](=O)[O-] [nitro oleic acid, E-9-nitrooleic acid]
cell volume (increase in size to) [7]: 140%
EC50 [3, 10]: 10 to 50 µM

CCCCCCCC/C=C(\CCCCCCCC(=O)OC[C@H](COP(=O)([O-])OCC[N+](C)(C)C)OC(=O)CCCCCCC/C(=C\CCCCCCCC)[N+](=O)[O-])[N+](=O)[O-] [Example B, 1,2-di-(9-nitrooleoyl)-sn-3-glycerophosphocholine]
inducible membrane channel activity of TRP channels (TRPV1, 2 and 4, TRPA1): significant decrease of inducible membrane channel activity
proportion of living cells relative to non-frozen control (sciatic nerve): 83%
mechanical removal of coating substance and workload to pull the catheter through PTFE tubing [8]: Very similar results
biocompatibility of coated implants compared to natural PLs [6]: improved biocompatibility of implants several-fold

CCCCCCCC/C=C\CCCCCCCC(=O)OC[C@H](COP(=O)([O-])OCC[N+](C)(C)C)OC(=O)CCCCCCC/C=C\CCCCCCCC [DOPC, 1,2-dioleoyl-sn-glycero-3-PC]
cell volume (increase in size to) [7]: 180%
viability as quantified by the MTT assay [3]: only slightly decreased
viability according to the live/dead staining [9]: high rate of viability

CCCCCCCC/C=C(\CCCCCCCC(=O)OC[C@H](COP(=O)(O)OCCN)OC(=O)CCCCCCC/C(=C\CCCCCCCC)[N+](=O)[O-])[N+](=O)[O-] [Example D, 1,2-di-(9-nitrooleoyl)-sn-3-glycero-phosphatidylethanolamine]
inducible membrane channel activity of TRP channels (TRPV1, 2 and 4, TRPA1): significant decrease of inducible membrane channel activity
proportion of living cells relative to non-frozen control (sciatic nerve): 89%
mechanical removal of coating substance and workload to pull the catheter through PTFE tubing [8]: Very similar results
biocompatibility of coated implants compared to natural PLs [6]: improved biocompatibility of implants several-fold

CCCCC/C=C\C/C=C(\CCCCCCCC(=O)O)[N+](=O)[O-] [nitro-linoleic acid, E-9-nitrolinoleic acid]
cell volume (increase in size to) [7]: 120%
EC50 [3, 10]: 50 to 100 µM

CCCCC/C=C\C/C=C\CCCCCCCC(=O)O [linoleic acid, Linoleic acid]
cell volume (increase in size to) [7]: 170%
EC50 [3, 10]: 240 to 260 µM

CCCCCCCC/C=C\CCCCCCCC(=O)O[C@H](COC(=O)CCCCCCCCCCCCCCCCC)COP(=O)([O-])OCC[N+](C)(C)C [SOPC, 1-Stearoyl-2-oleoyl-sn-glycero-3-PC, reference compound]
cell volume (increase in size to) [7]: 150%
proportion of living cells relative to non-frozen control (sciatic nerve): 26%
loss of viability of heart muscle cells after hypoxia ([2]; (10 minutes)): 14%
loss of viability of heart muscle cells after hypoxia ([2]; (30 minutes)): 40%
mitochondrial NAD+ content ([2]; first printed value): 3.0 nmol/mg protein
mitochondrial NAD+ content ([2]; second printed value): 1.1 nmol/mg protein
viability as quantified by the MTT assay [3]: only slightly decreased
viability according to the live/dead staining [9]: high rate of viability
increase in LDH versus normoxemia culture (cortical neurons; 10-minutes ischemia): 280 fold
viability of cortical cells measured after 24 hours (cortical neurons; 10-minutes ischemia): 33%
increase in LDH versus normoxemia culture (cortical neurons; 30-minutes ischemia): 640 fold
viability of cortical cells measured after 24 hours (cortical neurons; 30-minutes ischemia): 0%

CCCCCCCC/C=C\CCCCCCCC(=O)O [oleic acid, Oleic acid]
cell volume (increase in size to) [7]: 200%
EC50 [3, 10]: 180 to 260 µM
